Here are results for eight molecules from patent publication US12594276B2, “Inhibitors of human immunodeficiency virus replication” (ViiV Healthcare UK (No.5) Limited, priority 2024, dated 2026).

The nature of data set [1]: Compound cytotoxicity, XTT-based colorimetric assay. The conditions noted are these: human. The class given is cell-based. In outline:
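Follows the antiviral assay procedure, but with uninfected MT2 cells. On day 4, cell viability is measured by XTT-based colorimetry, giving CC50 values.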

Data set [2] concerns recombinant NL4-3 virus (nef section replaced with Renilla luciferase gene) in MT-2 cells. Description: HIV cell culture assay (antiviral activity, luciferase readout). It counts as cell-based. The settings on record: Renilla, NL43, MT-2 cells infected for 4-5 days with recombinant NL4-3 Renilla luciferase virus. In outline:
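MT-2 cells were infected for 4-5 days with reporter virus made by transfecting the recombinant NL4-3 proviral clone into 293T cells, in the presence of serial compound dilutions. Luciferase activity was read with a live-cell substrate. EC50 came from the exponential median effect equation, (Fa)=1/[1+(ED50/drug conc.)m].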

Where [3] appears, read: uninfected MT2 cells, day 4, XTT, read-out: CC50.

Read-outs that look alike come from different tables or passages of the source.

In the case of `Cc1cc(C2CCC(F)(F)CC2)nc2nc([C@H](Cc3cc(F)cc(F)c3)NC(=O)Cn3nc(C4CC4)c4c3C[C@@H]3C[C@H]43)n(-c3ccc(Cl)c4c(NS(C)(=O)=O)nn(CCN5CC(F)(F)C5)c34)c(=O)c12` (atropisomer, axis not shown; (P)) [Example 283, N-[(1S)-1-[(3P)-3-{4-chloro-1-[2-(3,3-difluoroazetidin-1-yl)ethyl]-3-methanesulfonamido-1H-indazol-7-yl}-7-(4,4-difluorocyclohexyl)-5-methyl-4-oxo-3H,4H-pyrido[2,3-d]pyrimidin-2-yl]-2-(3,5-difluorophenyl)ethyl]-2-[(2S,4S)-9-cyclopropyl-7,8-diazatricyclo[4.3.0.0^2,^4]nona-1(6),8-dien-7-yl]acetamide], in data set [1] (setting [3]), the cytotoxic concentration (CC50) at 4 days was greater than 50 nM. Also, the EC50 in data set [2] was determined as 0.008 nM.
Regarding `COCCCNc1cc(C2CCC(F)(F)CC2)nc2nc([C@H](Cc3cc(F)cc(F)c3)NC(=O)Cn3nc(C(F)F)c4c3C(F)(F)[C@@H]3C[C@H]43)n(-c3ccc(Cl)c4c(NS(C)(=O)=O)nn(CCCOC)c34)c(=O)c12` (atropisomer, axis not shown; (P)) [Example 285, N-[(1S)-1-[(3P)-3-[4-chloro-3-methanesulfonamido-1-(3-methoxypropyl)-1H-indazol-7-yl]-7-(4,4-difluorocyclohexyl)-5-[(3-methoxypropyl)amino]-4-oxo-3H,4H-pyrido[2,3-d]pyrimidin-2-yl]-2-(3,5-difluorophenyl)ethyl]-2-[(2S,4R)-9-(difluoromethyl)-5,5-difluoro-7,8-diazatricyclo[4.3.0.0^2,^4]nona-1(6),8-dien-7-yl]acetamide], the 50% cytotoxic concentration (CC50) at 4 days in data set [1] (setting [3]) was greater than 50 nM. The EC50 in data set [2] is 0.009 nM.
Turning to `CS(=O)(=O)Nc1nn(CCN2C[C@H](F)C[C@H](F)C2)c2c(-n3c([C@H](Cc4cc(F)cc(F)c4)NC(=O)Cn4nc(C5CC5)c5c4C[C@@H]4C[C@H]54)nc4nc(C5CCC(F)(F)CC5)cc(C(F)F)c4c3=O)ccc(Cl)c12` (atropisomer, axis not shown; (P)) [Example 287, N-[(1S)-1-[(3P)-3-(4-chloro-1-{2-[(3R,5S)-3,5-difluoropiperidin-1-yl]ethyl}-3-methanesulfonamido-1H-indazol-7-yl)-7-(4,4-difluorocyclohexyl)-5-(difluoromethyl)-4-oxo-3H,4H-pyrido[2,3-d]pyrimidin-2-yl]-2-(3,5-difluorophenyl)ethyl]-2-[(2S,4S)-9-cyclopropyl-7,8-diazatricyclo[4.3.0.0^2,^4]nona-1(6),8-dien-7-yl]acetamide], the CC50 at 4 days in data set [1] (setting [3]) was greater than 50 nM. For the same molecule, the concentration for a half-maximal effect (EC50) in data set [2] came to 0.01 nM.
Consider `CS(=O)(=O)Nc1nn(CCN2C[C@H]3CC[C@@H](C2)O3)c2c(-n3c([C@H](Cc4cc(F)cc(F)c4)NC(=O)Cn4nc(C5CC5)c5c4C[C@@H]4C[C@H]54)nc4nc(C5CCC(F)(F)CC5)cc(C(F)F)c4c3=O)ccc(Cl)c12` (atropisomer, axis not shown; (P)) [Example 288, N-[(1S)-1-[(3P)-3-(4-chloro-3-methanesulfonamido-1-{2-[(1R,5S)-8-oxa-3-azabicyclo[3.2.1]octan-3-yl]ethyl}-1H-indazol-7-yl)-7-(4,4-difluorocyclohexyl)-5-(difluoromethyl)-4-oxo-3H,4H-pyrido[2,3-d]pyrimidin-2-yl]-2-(3,5-difluorophenyl)ethyl]-2-[(2S,4S)-9-cyclopropyl-7,8-diazatricyclo[4.3.0.0^2,^4]nona-1(6),8-dien-7-yl]acetamide], for which, in data set [1] (setting [3]), the CC50 at 4 days was greater than 50 nM. For the same molecule, the EC50 in data set [2] came out at 0.008 nM.
For the molecule `CS(=O)(=O)Nc1nn(CCN2[C@@H]3CC[C@H]2COC3)c2c(-n3c([C@H](Cc4cc(F)cc(F)c4)NC(=O)Cn4nc(C5CC5)c5c4C[C@@H]4C[C@H]54)nc4nc(C5CCC(F)(F)CC5)cc(C(F)F)c4c3=O)ccc(Cl)c12` (atropisomer, axis not shown; (P)) [Example 289, N-[(1S)-1-[(3P)-3-(4-chloro-3-methanesulfonamido-1-{2-[(1R,5S)-3-oxa-8-azabicyclo[3.2.1]octan-8-yl]ethyl}-1H-indazol-7-yl)-7-(4,4-difluorocyclohexyl)-5-(difluoromethyl)-4-oxo-3H,4H-pyrido[2,3-d]pyrimidin-2-yl]-2-(3,5-difluorophenyl)ethyl]-2-[(2S,4S)-9-cyclopropyl-7,8-diazatricyclo[4.3.0.0^2,^4]nona-1(6),8-dien-7-yl]acetamide], in data set [1], the CC50 at 4 days was greater than 50 nM. Besides, the EC50 in data set [2] is 0.025 nM.
Regarding `CC1(F)CCN(CCn2nc(NS(C)(=O)=O)c3c(Cl)ccc(-n4c([C@H](Cc5cc(F)cc(F)c5)NC(=O)Cn5nc(C(F)F)c6c5C(F)(F)[C@@H]5C[C@H]65)nc5nc(C6CCC(F)(F)CC6)cc(C(F)F)c5c4=O)c32)CC1` (atropisomer, axis not shown; (P)) [Example 290, N-[(1S)-1-[(3P)-3-{4-chloro-1-[2-(4-fluoro-4-methylpiperidin-1-yl)ethyl]-3-methanesulfonamido-1H-indazol-7-yl}-7-(4,4-difluorocyclohexyl)-5-(difluoromethyl)-4-oxo-3H,4H-pyrido[2,3-d]pyrimidin-2-yl]-2-(3,5-difluorophenyl)ethyl]-2-[(2S,4R)-9-(difluoromethyl)-5,5-difluoro-7,8-diazatricyclo[4.3.0.0^2,^4]nona-1(6),8-dien-7-yl]acetamide], in data set [1] (setting [3]), the CC50 at 4 days is greater than 50 nM. Besides, the EC50 in data set [2] was 0.023 nM.
As to `CS(=O)(=O)Nc1nn(CCN2C[C@H](F)C[C@H](F)C2)c2c(-n3c([C@H](Cc4cc(F)cc(F)c4)NC(=O)Cn4nc(C(F)F)c5c4C(F)(F)[C@@H]4C[C@H]54)nc4nc(C5CCC(F)(F)CC5)cc(C(F)F)c4c3=O)ccc(Cl)c12` (atropisomer, axis not shown; (P)) [Example 291, N-[(1S)-1-[(3P)-3-(4-chloro-1-{2-[(3R,5S)-3,5-difluoropiperidin-1-yl]ethyl}-3-methanesulfonamido-1H-indazol-7-yl)-7-(4,4-difluorocyclohexyl)-5-(difluoromethyl)-4-oxo-3H,4H-pyrido[2,3-d]pyrimidin-2-yl]-2-(3,5-difluorophenyl)ethyl]-2-[(2S,4R)-9-(difluoromethyl)-5,5-difluoro-7,8-diazatricyclo[4.3.0.0^2,^4]nona-1(6),8-dien-7-yl]acetamide], the CC50 at 4 days in data set [1] (setting [3]) was greater than 50 nM. The 50% effective concentration (EC50) in data set [2] turned out to be 0.012 nM.
In the case of `CS(=O)(=O)Nc1nn(CCN2CCCC(F)(F)C2)c2c(-n3c([C@H](Cc4cc(F)cc(F)c4)NC(=O)Cn4nc(C(F)F)c5c4C(F)(F)[C@@H]4C[C@H]54)nc4nc(C5CCC(F)(F)CC5)cc(C(F)F)c4c3=O)ccc(Cl)c12` (atropisomer, axis not shown; (P)) [Example 292, N-[(1S)-1-[(3P)-3-{4-chloro-1-[2-(3,3-difluoropiperidin-1-yl)ethyl]-3-methanesulfonamido-1H-indazol-7-yl}-7-(4,4-difluorocyclohexyl)-5-(difluoromethyl)-4-oxo-3H,4H-pyrido[2,3-d]pyrimidin-2-yl]-2-(3,5-difluorophenyl)ethyl]-2-[(2S,4R)-9-(difluoromethyl)-5,5-difluoro-7,8-diazatricyclo[4.3.0.0^2,^4]nona-1(6),8-dien-7-yl]acetamide], in data set [1] (setting [3]), the CC50 at 4 days was greater than 50 nM. For the same molecule, the EC50 in data set [2] is 0.016 nM.

A word on the CC50: it is the concentration giving 50% cytotoxicity. What is called EC50 is the concentration at which the effect is half-maximal.
